A short description of data set [1]: Acute toxicity, oral, observed for seven days. The note with it: in vivo, ddN male mouse about 20 g.
The subject of data set [2] is brain cells (delayed neuronal damage). The settings on record: Kirino et al., Progress in Brain Research, vol. 63: 39-58 (1985); cited from earlier work.
The conditions of data set [3]: pentobarbital acts nonselectively; cited from earlier work.

Counter-ions that a name gives are not always drawn. Some results are limits rather than exact numbers.

On to `COc1cc(C(O)CN2CCN(C(c3ccccc3)c3ccccc3)CC2)cc(OC)c1OC` (stereo not shown) [B, 2(4-diphenylmethylpiperazinyl)-1-(3,4,5-trimethoxyphenyl)ethanol monohydrochloride], for which the LD50 at 168 h in data set [1] is > 2000 mg/kg.

As for `Oc1ccc(C(O)CN2CCN(C(c3ccccc3)c3ccccc3)CC2)cc1` (stereo not shown) [C, 2(4-diphenylmethylpiperazinyl)-1-(4-hydroxyphenyl)ethanol monohydrochloride], in data set [1], the LD50 at 168 h was > 2000 mg/kg. Turning to `CCCC(C)C1(CC)C(=O)NC(=O)NC1=O` (stereo not shown) [pentobarbital], the “Effect of protection of brain cells / suppression of delayed neuronal damage” value in data set [2] is “markedly suppress the above-mentioned delayed neuronal damage”. In data set [3], the “Action on central nervous system” value is listed as “the action of central nervous system is also strongly subsided”.
